# Target: Human RSK2 (Homo sapiens (Human), UniProt P51812)
# Assay: Human RSK2 Assay (Kinase Glo Plus, residual ATP)
# Type: biochemical
# Conditions: 0.75 nM His-RSK2, 0.75 μM ATP, 1.0 μM S6 Kinase/RSK Substrate Peptide 1
# How it was run: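 His-RSK2 (0.75 nM) with 0.75 μM ATP and 1.0 μM S6 kinase/RSK substrate peptide in HEPES pH 7.5 buffer with Mg/Mn, 90 min at 28° C. Residual ATP read by Kinase Glo Plus luminescence; percent of control fitted to a 4-parameter logistic, IC50 taken as inflection point.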
# Chain of Human RSK2 (P51812 whole entry): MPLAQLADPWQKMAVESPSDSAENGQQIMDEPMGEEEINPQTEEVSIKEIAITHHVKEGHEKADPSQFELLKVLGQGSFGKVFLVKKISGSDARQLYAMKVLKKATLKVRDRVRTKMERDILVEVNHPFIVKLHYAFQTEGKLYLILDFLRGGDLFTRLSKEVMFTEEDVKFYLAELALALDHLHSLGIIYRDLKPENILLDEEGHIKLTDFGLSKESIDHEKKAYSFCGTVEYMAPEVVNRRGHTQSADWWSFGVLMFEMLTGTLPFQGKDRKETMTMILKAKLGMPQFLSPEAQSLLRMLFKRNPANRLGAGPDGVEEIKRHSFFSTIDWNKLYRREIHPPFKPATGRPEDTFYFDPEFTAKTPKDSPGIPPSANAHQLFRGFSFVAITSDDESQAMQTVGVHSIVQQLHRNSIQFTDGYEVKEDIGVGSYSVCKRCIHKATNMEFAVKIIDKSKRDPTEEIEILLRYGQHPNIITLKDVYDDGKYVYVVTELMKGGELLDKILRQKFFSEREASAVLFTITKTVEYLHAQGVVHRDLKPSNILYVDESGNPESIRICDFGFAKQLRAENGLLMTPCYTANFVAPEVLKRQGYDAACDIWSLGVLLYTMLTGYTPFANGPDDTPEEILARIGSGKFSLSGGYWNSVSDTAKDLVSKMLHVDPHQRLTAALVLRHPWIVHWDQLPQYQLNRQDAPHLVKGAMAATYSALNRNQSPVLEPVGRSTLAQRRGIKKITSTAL
row,Compound,IC50
1,"CC1CCNC(=O)c2cc3ccc(C(=O)Nc4cnn(Cc5ccncc5)c4)nc3n21 (stereo not drawn) [Example 68, 10-methyl-6-oxo-N-[1-(pyridin-4-ylmethyl)-1H-pyrazol-4-yl]-7,8,9,10-tetrahydro-6H-pyrido[3′,2′:4,5]pyrrolo[1,2-a][1,4]diazepine-2-carboxamide]",0.27 nM
2,"CCn1c(NC(=O)c2ccc3cc4n(c3n2)C(C)CCNC4=O)nc2ccccc21 (stereo not drawn) [Example 69, N-(1-ethyl-1H-benzimidazol-2-yl)-10-methyl-6-oxo-7,8,9,10-tetrahydro-6H-pyrido[3′,2′:4,5]pyrrolo[1,2-a][1,4]diazepine-2-carboxamide]",15 nM
3,"CC1CCNC(=O)c2cc3ccc(C(=O)Nc4nc5ccccc5n4CCCN(C)C)nc3n21 (stereo not drawn) [Example 70, N-{[3-(dimethylamino)propyl]-1H-benzimidazol-2-yl}-10-methyl-6-oxo-7,8,9,10-tetrahydro-6H-pyrido[3′,2′:4,5]pyrrolo[1,2-a][1,4]diazepine-2-carboxamide]",27 nM
4,"CCn1c(NC(=O)c2ccc3cc4n(c3n2)[C@@H](C)CNC4=O)nc2ccccc21 [Example 71, (9S)-N-(1-ethyl-1H-benzimidazol-2-yl)-9-methyl-6-oxo-6,7,8,9-tetrahydropyrido[3′,2′:4,5]pyrrolo[1,2-a]pyrazine-2-carboxamide]",54.5 nM
5,"CCn1c(NC(=O)c2ccc3cc4n(c3n2)[C@H](C)CNC4=O)nc2ccccc21 [Example 72, (9R)-N-(1-ethyl-1H-benzimidazol-2-yl)-9-methyl-6-oxo-6,7,8,9-tetrahydropyrido[3′,2′:4,5]pyrrolo[1,2-a]pyrazine-2-carboxamide]",26.5 nM
6,"C[C@H]1CNC(=O)c2cc3ccc(C(=O)Nc4nc5ccccc5n4CCCN(C)C)nc3n21 [Example 75, (9S)-N-{1-[3-(dimethylamino)propyl]-1H-benzimidazol-2-yl}-9-methyl-6-oxo-6,7,8,9-tetrahydropyrido[3′,2′:4,5]pyrrolo[1,2-a]pyrazine-2-carboxamide]",265 nM
7,"C[C@@H]1CNC(=O)c2cc3ccc(C(=O)Nc4nc5ccccc5n4CCCN(C)C)nc3n21 [Example 76, (9R)-N-{1-[3-(dimethylamino)propyl]-1H-benzimidazol-2-yl}-9-methyl-6-oxo-6,7,8,9-tetrahydropyrido[3′,2′:4,5]pyrrolo[1,2-a]pyrazine-2-carboxamide]",54 nM
8,"CC(C)(C)c1cc(NC(=O)c2ccc3cc4n(c3n2)CCCNC4=O)no1 [Example 79, N-(5-tert-butyl-1,2-oxazol-3-yl)-6-oxo-7,8,9,10-tetrahydro-6H-pyrido[3′,2′:4,5]pyrrolo[1,2-a][1,4]diazepine-2-carboxamide]",19 nM
9,"Cc1cc(NC(=O)c2ccc3cc4n(c3n2)CCCNC4=O)no1 [Example 80, N-(5-methyl-1,2-oxazol-3-yl)-6-oxo-7,8,9,10-tetrahydro-6H-pyrido[3′,2′:4,5]pyrrolo[1,2-a][1,4]diazepine-2-carboxamide]",19 nM
10,"O=C(Nc1cc(-c2ccccc2)no1)c1ccc2cc3n(c2n1)CCCNC3=O [Example 81, 6-oxo-N-(3-phenyl-1,2-oxazol-5-yl)-7,8,9,10-tetrahydro-6H-pyrido[3′,2′:4,5]pyrrolo[1,2-a][1,4]diazepine-2-carboxamide]",4.3 nM
11,"Cc1cc(NC(=O)c2ccc3cc4n(c3n2)C(C)CCNC4=O)no1 (stereo not drawn) [Example 82, 10-methyl-N-(5-methyl-1,2-oxazol-3-yl)-6-oxo-7,8,9,10-tetrahydro-6H-pyrido[3′,2′:4,5]pyrrolo[1,2-a][1,4]diazepine-2-carboxamide]",5.2 nM
12,"Cc1cc(NC(=O)c2ccc3cc4n(c3n2)[C@@H](C)CNC4=O)no1 [Example 83, (9S)-9-methyl-N-(5-methyl-1,2-oxazol-3-yl)-6-oxo-6,7,8,9-tetrahydropyrido[3′,2′:4,5]pyrrolo[1,2-a]pyrazine-2-carboxamide]",380 nM
13,"Cc1cc(NC(=O)c2ccc3cc4n(c3n2)[C@H](C)CNC4=O)no1 [Example 84, (9R)-9-methyl-N-(5-methyl-1,2-oxazol-3-yl)-6-oxo-6,7,8,9-tetrahydropyrido[3′,2′:4,5]pyrrolo[1,2-a]pyrazine-2-carboxamide]",6.6 nM
14,"CCc1cc(NC(=O)c2ccc3cc4n(c3n2)CC(C)(C)CNC4=O)no1 [Example 88, N-(5-ethyl-1,2-oxazol-3-yl)-9,9-dimethyl-6-oxo-7,8,9,10-tetrahydro-6H-pyrido[3′,2′:4,5]pyrrolo[1,2-a][1,4]diazepine-2-carboxamide]",109 nM

# Further lines, results first:
row,IC50,Compound
1,125 nM,"CC(C)c1cc(NC(=O)c2ccc3cc4n(c3n2)CC(C)(C)CNC4=O)no1 [Example 89, 9,9-dimethyl-6-oxo-N-[5-(propan-2-yl)-1,2-oxazol-3-yl]-7,8,9,10-tetrahydro-6H-pyrido[3′,2′:4,5]pyrrolo[1,2-a][1,4]diazepine-2-carboxamide]"
2,43 nM,"CC1(C)CNC(=O)c2cc3ccc(C(=O)Nc4cc(C5CC5)on4)nc3n2C1 [Example 90, N-(5-cyclopropyl-1,2-oxazol-3-yl)-9,9-dimethyl-6-oxo-7,8,9,10-tetrahydro-6H-pyrido[3′,2′:4,5]pyrrolo[1,2-a][1,4]diazepine-2-carboxamide]"
3,395 nM,"Cc1cc(NC(=O)c2ccc3cc4n(c3n2)CC(C)(C)CNC4=O)no1 [Example 91, 9,9-dimethyl-N-(5-methyl-1,2-oxazol-3-yl)-6-oxo-7,8,9,10-tetrahydro-6H-pyrido[3′,2′:4,5]pyrrolo[1,2-a][1,4]diazepine-2-carboxamide]"
4,502 nM,"CC1(C)CNC(=O)c2cc3ccc(C(=O)Nc4cc(-c5ccccc5)on4)nc3n2C1 [Example 92, 9,9-dimethyl-6-oxo-N-(5-phenyl-1,2-oxazol-3-yl)-7,8,9,10-tetrahydro-6H-pyrido[3′,2′:4,5]pyrrolo[1,2-a][1,4]diazepine-2-carboxamide]"
5,360 nM,"CC1(C)CNC(=O)c2cc3ccc(C(=O)Nc4cc(Cc5ccccc5)on4)nc3n2C1 [Example 93, N-(5-benzyl-1,2-oxazol-3-yl)-9,9-dimethyl-6-oxo-7,8,9,10-tetrahydro-6H-pyrido[3′,2′:4,5]pyrrolo[1,2-a][1,4]diazepine-2-carboxamide]"
6,3.3 nM,"CC1CCNC(=O)c2cc3ccc(C(=O)Nc4cc(Cc5ccccc5)on4)nc3n21 (stereo not drawn) [Example 94, N-(5-benzyl-1,2-oxazol-3-yl)-10-methyl-6-oxo-7,8,9,10-tetrahydro-6H-pyrido[3′,2′:4,5]pyrrolo[1,2-a][1,4]diazepine-2-carboxamide]"
7,3.6 nM,"O=C(Nc1cc(Cc2ccccc2)no1)c1ccc2cc3n(c2n1)CCCNC3=O [Example 95, N-(3-benzyl-1,2-oxazol-5-yl)-6-oxo-7,8,9,10-tetrahydro-6H-pyrido[3′,2′:4,5]pyrrolo[1,2-a][1,4]diazepine-2-carboxamide]"
8,13 nM,"CC1CCNC(=O)c2cc3ccc(C(=O)Nc4cc(Cc5ccccc5)no4)nc3n21 (stereo not drawn) [Example 96, N-(3-benzyl-1,2-oxazol-5-yl)-10-methyl-6-oxo-7,8,9,10-tetrahydro-6H-pyrido[3′,2′:4,5]pyrrolo[1,2-a][1,4]diazepine-2-carboxamide]"
9,490 nM,"C[C@H]1CNC(=O)c2cc3ccc(C(=O)Nc4cc(Cc5ccccc5)on4)nc3n21 [Example 97, (9S)-N-(5-benzyl-1,2-oxazol-3-yl)-9-methyl-6-oxo-6,7,8,9-tetrahydropyrido[3′,2′:4,5]pyrrolo[1,2-a]pyrazine-2-carboxamide]"
10,3.9 nM,"C[C@@H]1CNC(=O)c2cc3ccc(C(=O)Nc4cc(Cc5ccccc5)on4)nc3n21 [Example 98, (9R)-N-(5-benzyl-1,2-oxazol-3-yl)-9-methyl-6-oxo-6,7,8,9-tetrahydropyrido[3′,2′:4,5]pyrrolo[1,2-a]pyrazine-2-carboxamide]"
11,120 nM,"CC1CNC(=O)c2cc3ccc(C(=O)Nc4cccnc4)nc3n21 (stereo not drawn) [Example 101, 9-methyl-6-oxo-N-(pyridin-3-yl)-6,7,8,9-tetrahydropyrido[3′,2′:4,5]pyrrolo[1,2-a]pyrazine-2-carboxamide]"
12,130 nM,"CNC(=O)c1csc(NC(=O)c2ccc3cc4n(c3n2)C(C)CNC4=O)n1 (stereo not drawn) [Example 102, 9-methyl-N-[4-(methylcarbamoyl)-1,3-thiazol-2-yl]-6-oxo-6,7,8,9-tetrahydropyrido[3′,2′:4,5]pyrrolo[1,2-a]pyrazine-2-carboxamide]"
13,330 nM,"CC1CNC(=O)c2cc3ccc(C(=O)Nc4nccs4)nc3n21 (stereo not drawn) [Example 103, 9-methyl-6-oxo-N-(1,3-thiazol-2-yl)-6,7,8,9-tetrahydropyrido[3′,2′:4,5]pyrrolo[1,2-a]pyrazine-2-carboxamide]"
14,1.6 nM,"Cn1cc(NC(=O)c2ccc3cc4n(c3n2)CCCNC4=O)nc1C(=O)NC1CCCC1 [Example 104, N-[2-(cyclopentylcarbamoyl)-1-methyl-1H-imidazol-4-yl]-6-oxo-7,8,9,10-tetrahydro-6H-pyrido[3′,2′:4,5]pyrrolo[1,2-a][1,4]diazepine-2-carboxamide]"

# Tested on: NHE1
# Assay: not given
# Conditions: Cuello et al., Mol Pharmacol 71:799-806, 2007; cited from earlier work
Compound,basal NHE1 activity,phosphorylation of NHE1 and phenylephrine-induced enhanced NHE1 activity
Cc1ccc(-c2c(C(=O)CF)n(CCCO)c3ncnc(N)c23)cc1 [fmk],without affecting basal activity,inhibit phosphorylation of NHE1

# Source: patent publication US9073926B2, “Heterocyclic compounds containing a pyrrolopyridine or benzimidazole core” (Boehringer Ingelheim International GmbH, priority 2009, dated 2015)
